Experimental data taken from patent US20140294856A1, “COMBINATION TREATMENT COMPRISING A HDAC6 INHIBITOR AND AN AKT INHIBITOR” (priority 2011, published 2014).

Tests used:
[1] = target: T1, ABCG2 (Homo sapiens, UniProt Q9UNQ0); assay: Impact of ABCG2 on cytotoxicity, SRB assay, MCF7-MX vs MCF7
T1 sequence (Q9UNQ0 1-655): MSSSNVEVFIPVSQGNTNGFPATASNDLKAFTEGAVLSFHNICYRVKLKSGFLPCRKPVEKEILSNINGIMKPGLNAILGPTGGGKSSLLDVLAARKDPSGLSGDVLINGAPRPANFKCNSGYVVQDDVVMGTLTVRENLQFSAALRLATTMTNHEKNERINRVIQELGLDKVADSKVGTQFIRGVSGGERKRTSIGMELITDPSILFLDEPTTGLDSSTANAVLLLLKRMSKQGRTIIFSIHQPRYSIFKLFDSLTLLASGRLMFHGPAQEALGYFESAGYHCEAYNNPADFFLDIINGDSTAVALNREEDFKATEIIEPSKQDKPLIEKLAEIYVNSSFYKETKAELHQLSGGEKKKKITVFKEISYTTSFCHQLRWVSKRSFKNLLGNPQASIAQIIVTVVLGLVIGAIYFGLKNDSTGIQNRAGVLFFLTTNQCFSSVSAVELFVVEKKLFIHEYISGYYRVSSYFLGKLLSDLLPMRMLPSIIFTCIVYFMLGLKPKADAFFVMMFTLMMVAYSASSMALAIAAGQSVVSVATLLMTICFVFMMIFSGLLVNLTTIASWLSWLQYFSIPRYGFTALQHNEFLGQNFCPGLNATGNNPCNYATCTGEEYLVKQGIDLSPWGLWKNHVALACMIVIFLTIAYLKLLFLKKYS

[2] = system: panel of 19 cancer cell lines; assay: Growth inhibition, SRB assay, 72 hours; type: cell-based
[3] = Stability in PBS at acidic pH, HPLC-UV; type: physicochemical; conditions: down to pH 2, cell free, 10 μM in PBS, 1 hour, 37° C.
Method: FIG. 3. Impact of the pH on the stability of HDAC-C1A. HDAC-C1A was incubated at 10 μM in PBS for 1 hour at 37° C. and the concentration was evaluated using HPLC-UV. The pH of PBS was adjusted using HCL.
The drug was stable after oral, parenteral and intravenous administration for 24 h (last time point examined). […] The Cma and AUC0-24h following i.p. injection (20 mg/kg) were 3.2 μg/mL and 11.2 μg/mL*h, respectively. […] The acid instability of HDAC-C1A could therefore be improved by enteric coating as a means to avoid breakdown in the stomach. […] HDAC-C1A was also tested in HCT116 human colon cancer xenograft model using a refined dose and scheduling. […] This dose was non-toxic (no reduction in body weight) (FIG. 5.D). The acetylated form of α-tubulin (biomarker of response to HDAC6 inhibition) could be observed after 14 days of treatment and could be detected as early as 6 hours after the 1st injection (FIG. 5.E.). The acetylated form of Histone 3 (biomarker of response of class I histones) could be observed as early as 2 hours after the 1st injection and remain after 14 days of treatment (FIG. 5.E).

[4] = system: HCT116 cells; assay: Combination studies, SRB assay, combination index (CalcuSyn); type: cell-based, human
[5] = target: P-gp (Homo sapiens, UniProt P08183)
[6] = system: Ishikawa; assay: Phospho-AKT levels by western blotting; type: cell-based; conditions: endometrial cancer cell line Ishikawa (PTEN-null)

Chain of P-gp (P08183 whole entry): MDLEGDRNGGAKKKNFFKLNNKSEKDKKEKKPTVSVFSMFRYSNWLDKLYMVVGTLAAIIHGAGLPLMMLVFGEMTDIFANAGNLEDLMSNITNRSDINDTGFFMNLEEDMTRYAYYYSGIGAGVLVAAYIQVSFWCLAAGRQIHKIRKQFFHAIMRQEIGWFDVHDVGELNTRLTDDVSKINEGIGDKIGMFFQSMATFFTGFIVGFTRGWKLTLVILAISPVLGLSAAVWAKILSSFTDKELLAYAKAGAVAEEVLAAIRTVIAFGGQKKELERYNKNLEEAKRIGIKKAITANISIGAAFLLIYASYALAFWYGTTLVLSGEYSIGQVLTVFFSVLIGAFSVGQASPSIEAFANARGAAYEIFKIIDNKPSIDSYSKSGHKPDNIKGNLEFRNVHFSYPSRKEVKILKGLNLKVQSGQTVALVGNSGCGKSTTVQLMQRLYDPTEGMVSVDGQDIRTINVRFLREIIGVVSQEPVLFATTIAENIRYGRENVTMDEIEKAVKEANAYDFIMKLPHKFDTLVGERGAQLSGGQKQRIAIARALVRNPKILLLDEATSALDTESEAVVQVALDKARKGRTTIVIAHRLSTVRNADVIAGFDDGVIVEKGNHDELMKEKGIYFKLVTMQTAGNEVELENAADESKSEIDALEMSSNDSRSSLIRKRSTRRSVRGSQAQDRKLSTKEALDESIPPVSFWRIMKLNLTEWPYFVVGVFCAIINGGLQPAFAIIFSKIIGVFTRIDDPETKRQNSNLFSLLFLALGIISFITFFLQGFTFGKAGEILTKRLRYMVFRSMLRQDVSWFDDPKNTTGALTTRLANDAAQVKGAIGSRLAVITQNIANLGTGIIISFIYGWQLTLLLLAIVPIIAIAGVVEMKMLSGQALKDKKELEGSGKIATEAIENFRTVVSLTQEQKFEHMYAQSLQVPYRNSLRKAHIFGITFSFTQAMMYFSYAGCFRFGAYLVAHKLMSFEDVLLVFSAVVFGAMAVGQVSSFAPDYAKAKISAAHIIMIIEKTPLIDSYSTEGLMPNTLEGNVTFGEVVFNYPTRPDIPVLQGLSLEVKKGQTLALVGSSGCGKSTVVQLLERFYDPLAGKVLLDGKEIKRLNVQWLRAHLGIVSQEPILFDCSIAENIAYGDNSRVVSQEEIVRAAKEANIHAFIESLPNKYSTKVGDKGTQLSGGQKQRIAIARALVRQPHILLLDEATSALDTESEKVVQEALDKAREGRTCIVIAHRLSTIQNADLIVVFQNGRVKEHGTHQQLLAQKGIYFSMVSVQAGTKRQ

In the case of `CC(/C=C/C(=O)NO)=C\c1ccc(NS(=O)(=O)c2ccc(N(CCCl)CCCl)cc2)cc1` [HDAC-C1A], the “fold resistance (GI50 ratio) MCF7-MX vs parental MCF7” value ([1]; ABCG2 overexpressing) is reported as 2.8 fold, the “reversal of resistance by FTC in MCF7-MX cells” value ([1]; FTC, specific inhibitor of ABCG2) is reported as 5.2 fold and the “mean GI50” value [2] is reported as 2 ± 0.4 µg/mL. For the same molecule, the “stability across acidic pH” value [3] was “relative acidic degradation”, the “concentration of LY-294002 needed to synergise” value [4] was 1 µM and the “lowest concentration synergising with rapamycin” value ([4]; ED50) was at least 1.9 µM. The “fold resistance (GI50 ratio) P-gp over-expressing 3T3 vs parental” value [5] was 17 fold and the P-AKT levels increased [6] was “not”.
